As a reminder, the Ki is the dissociation constant of the complex between target and ligand, obtained from inhibition or displacement.

The target in the assay is T1, macrophage migration inhibitory factor-1 (MIF-1) (Homo sapiens, UniProt P14174).
T1 sequence (P14174 2-115): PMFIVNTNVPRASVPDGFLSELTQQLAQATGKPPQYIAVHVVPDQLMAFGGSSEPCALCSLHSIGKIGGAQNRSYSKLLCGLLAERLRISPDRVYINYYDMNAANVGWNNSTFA
Kind of assay: HPP tautomerase inhibition kinetics with purified protein. It counts as biochemical.

On to `O=C(O)c1cccc(-c2cc(C(=O)O)ncc2C(=O)O)c1` [4-CPPC, 4-(3-Carboxyphenyl)-2,5pyridinedicarboxylic acid], for which the inhibition constant Ki was 431 ± 37 µM.

The values are drawn from paper PMC6123015 (Biochemistry, 2018).
